# US9113629B2, “4-amino-6-(4-substituted-phenyl)-picolinates and 6-amino-2-(4-substituted-phenyl)-pyrimidine-4-carboxylates and their use as herbicides” (DOW AGROSCIENCES LLC, priority 2013, dated 2015)
# Like-named read-outs stand apart in the source and are kept apart here.
# Assays:
# [1] = system: Key Broadleaf Weed and Crop Species; test: Post-emergent Test II herbicidal activity (Table 5); format: in vivo; details: post-emergence, 336 h, 14 days after application; for pest or weed control at 70 g/ha: application rate 70 g ai/ha; for pest or weed control at 140 g/ha: application rate 140 g ai/ha
# Method in brief: (§1)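 Foliar application at 187 L/ha to greenhouse-grown seedlings (first or second true leaf); subirrigation thereafter. Visual 0–100% injury at 14 d relative to untreated plants.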
# [2] = system: Key Grass and Sedge Weeds as well as Grass Crops; test: Post-emergent Test II herbicidal activity (Table 6); format: in vivo; details: post-emergence, 336 h; for pest or weed control at 70 g/ha: 70 g ai/ha; for pest or weed control at 140 g/ha: 140 g ai/ha
# Method in brief: as §1
# [3] = ABUTH: velvetleaf (Abutilon theophrasti), read-out: Visual Growth Reduction (%) 14 Days After Application, ABUTH
# [4] = AMARE: redroot pigweed (Amaranthus retroflexus), read-out: Visual Growth Reduction (%) 14 Days After Application, AMARE
# [5] = BRSNN: oilseed-rape, canola (Brassica napus), read-out: Visual Growth Reduction (%) 14 Days After Application, BRSNN
# [6] = CHEAL: lambsquarters (Chenopodium album), read-out: Visual Growth Reduction (%) 14 Days After Application, CHEAL
# [7] = EPHHL: wild poinsettia (Euphorbia heterophylla), read-out: Visual Growth Reduction (%) 14 Days After Application, EPHHL
# [8] = HELAN: sunflower (Helianthus annuus), read-out: Visual Growth Reduction (%) 14 Days After Application, HELAN
# [9] = VIOTR: wild pansy (Viola tricolor), read-out: Visual Growth Reduction (%) 14 Days After Application, VIOTR
# [10] = CYPES: yellow nutsedge (Cyperus esculentus), read-out: Visual Growth Reduction (%) 14 Days After Application, CYPES
# [11] = DIGSA: crabgrass (Digitaria sanguinalis), read-out: Visual Growth Reduction (%) 14 Days After Application, DIGSA
# [12] = ECHCG: barnyardgrass (Echinochloa crus-galli), read-out: Visual Growth Reduction (%) 14 Days After Application, ECHCG
# [13] = ORYSA: rice (Oryza sativa), crop, read-out: Visual Growth Reduction (%) 14 Days After Application, ORYSA
# [14] = SETFA: giant foxtail (Setaria faberi), read-out: Visual Growth Reduction (%) 14 Days After Application, SETFA
# [15] = SORVU: grain sorghum (Sorghum vulgare), read-out: Visual Growth Reduction (%) 14 Days After Application, SORVU
# [16] = TRZSS (wheat, Triticum aestivum), crop, read-out: Visual Growth Reduction (%) 14 Days After Application, TRZSS
# [17] = ZEAMX: maize, corn (Zea mays), crop, read-out: Visual Growth Reduction (%) 14 Days After Application, ZEAMX
SMILES,"pest or weed control at 70 g/ha [1, 3] [%]","pest or weed control at 140 g/ha [1, 3] [%]","pest or weed control at 70 g/ha [1, 4] [%]","pest or weed control at 140 g/ha [1, 4] [%]","pest or weed control at 70 g/ha [1, 5] [%]","pest or weed control at 140 g/ha [1, 5] [%]","pest or weed control at 70 g/ha [1, 6] [%]","pest or weed control at 140 g/ha [1, 6] [%]","pest or weed control at 70 g/ha [1, 7] [%]","pest or weed control at 140 g/ha [1, 7] [%]","pest or weed control at 70 g/ha [1, 8] [%]","pest or weed control at 140 g/ha [1, 8] [%]","pest or weed control at 70 g/ha [1, 9] [%]","pest or weed control at 140 g/ha [1, 9] [%]","pest or weed control at 70 g/ha [2, 10] [%]","pest or weed control at 140 g/ha [2, 10] [%]","pest or weed control at 70 g/ha [2, 11] [%]","pest or weed control at 140 g/ha [2, 11] [%]","pest or weed control at 70 g/ha [2, 12] [%]","pest or weed control at 140 g/ha [2, 12] [%]",further results
Cc1ccc(-c2nc(C(=O)O)c(Cl)c(N)c2F)c(F)c1F [Compound 210],85 to 94,95 to 100,95 to 100,95 to 100,75 to 84,75 to 84,95 to 100,95 to 100,95 to 100,95 to 100,95 to 100,95 to 100,0 to 29,0 to 29,0 to 29,0 to 29,0 to 29,0 to 29,60 to 74,75 to 84,"pest or weed control at 70 g/ha [2, 13]: 0 to 29%; pest or weed control at 140 g/ha [2, 13]: 30 to 44%; pest or weed control at 70 g/ha [2, 14]: 75 to 84%; pest or weed control at 140 g/ha [2, 14]: 85 to 94%; pest or weed control at 70 g/ha [2, 15]: 0 to 29%; pest or weed control at 140 g/ha [2, 15]: 0 to 29%; pest or weed control at 70 g/ha [2, 16]: 0 to 29%; pest or weed control at 140 g/ha [2, 16]: 0 to 29%; pest or weed control at 70 g/ha [2, 17]: 0 to 29%; pest or weed control at 140 g/ha [2, 17]: 45 to 59%; melting point: 159 °C (dec.)"
COC(=O)c1nc(-c2ccc(C)c(F)c2F)c(F)c(N)c1Cl [Compound 211],95 to 100,95 to 100,95 to 100,95 to 100,60 to 74,85 to 94,95 to 100,95 to 100,95 to 100,95 to 100,95 to 100,95 to 100,0 to 29,0 to 29,45 to 59,60 to 74,0 to 29,0 to 29,45 to 59,85 to 94,"pest or weed control at 70 g/ha [2, 13]: 0 to 29%; pest or weed control at 140 g/ha [2, 13]: 0 to 29%; pest or weed control at 70 g/ha [2, 14]: 45 to 59%; pest or weed control at 140 g/ha [2, 14]: 60 to 74%; pest or weed control at 70 g/ha [2, 15]: 0 to 29%; pest or weed control at 140 g/ha [2, 15]: 30 to 44%; pest or weed control at 70 g/ha [2, 16]: 0 to 29%; pest or weed control at 140 g/ha [2, 16]: 0 to 29%; pest or weed control at 70 g/ha [2, 17]: 30 to 44%; pest or weed control at 140 g/ha [2, 17]: 45 to 59%; melting point: 167 to 168 °C"
Cc1ccc(-c2nc(C(=O)O)c(Cl)c(N)c2F)cc1F [Compound 212],95 to 100,95 to 100,95 to 100,95 to 100,95 to 100,95 to 100,95 to 100,95 to 100,95 to 100,95 to 100,95 to 100,95 to 100,0 to 29,0 to 29,0 to 29,30 to 44,0 to 29,30 to 44,75 to 84,85 to 94,"pest or weed control at 70 g/ha [2, 13]: 60 to 74%; pest or weed control at 140 g/ha [2, 13]: 60 to 74%; pest or weed control at 70 g/ha [2, 14]: 45 to 59%; pest or weed control at 140 g/ha [2, 14]: 75 to 84%; pest or weed control at 70 g/ha [2, 15]: 60 to 74%; pest or weed control at 140 g/ha [2, 15]: 75 to 84%; pest or weed control at 70 g/ha [2, 16]: 60 to 74%; pest or weed control at 140 g/ha [2, 16]: 60 to 74%; pest or weed control at 70 g/ha [2, 17]: 75 to 84%; pest or weed control at 140 g/ha [2, 17]: 85 to 94%; melting point: 145 to 146 °C"
COC(=O)c1nc(-c2ccc(Cl)c(F)c2)c(F)c(N)c1Cl [Compound 216],95 to 100,95 to 100,95 to 100,95 to 100,75 to 84,85 to 94,95 to 100,95 to 100,95 to 100,95 to 100,95 to 100,95 to 100,85 to 94,95 to 100,85 to 94,95 to 100,30 to 44,75 to 84,95 to 100,95 to 100,"pest or weed control at 70 g/ha [2, 13]: 0 to 29%; pest or weed control at 140 g/ha [2, 13]: 0 to 29%; pest or weed control at 70 g/ha [2, 14]: 30 to 44%; pest or weed control at 140 g/ha [2, 14]: 45 to 59%; pest or weed control at 70 g/ha [2, 15]: 85 to 94%; pest or weed control at 140 g/ha [2, 15]: 85 to 94%; pest or weed control at 70 g/ha [2, 16]: 0 to 29%; pest or weed control at 140 g/ha [2, 16]: 30 to 44%; pest or weed control at 70 g/ha [2, 17]: 85 to 94%; pest or weed control at 140 g/ha [2, 17]: 85 to 94%; melting point: 111 to 114 °C"
